The source of these data is paper PMC6704710, “Preclinical evaluation of 3D185, a novel potent inhibitor of FGFR1/2/3 and CSF-1R, in FGFR-dependent and macrophage-dominant cancer models” (Journal of Experimental & Clinical Cancer Research : CR, 2019).

For orientation: inhibition means the drop in the measured response relative to a control, in per cent.

Common to all, as to experiment: Eurofins kinase panel
Common to all, as to type: biochemical
What all share (settings): read-out: Inhibition rate (%)

Assay [1] deals with T1, LKB1(h) (Homo sapiens, UniProt Q15831).
T1 construct: purchased Eurofins (KinaseProfiler)
T1 sequence (Q15831 1-433): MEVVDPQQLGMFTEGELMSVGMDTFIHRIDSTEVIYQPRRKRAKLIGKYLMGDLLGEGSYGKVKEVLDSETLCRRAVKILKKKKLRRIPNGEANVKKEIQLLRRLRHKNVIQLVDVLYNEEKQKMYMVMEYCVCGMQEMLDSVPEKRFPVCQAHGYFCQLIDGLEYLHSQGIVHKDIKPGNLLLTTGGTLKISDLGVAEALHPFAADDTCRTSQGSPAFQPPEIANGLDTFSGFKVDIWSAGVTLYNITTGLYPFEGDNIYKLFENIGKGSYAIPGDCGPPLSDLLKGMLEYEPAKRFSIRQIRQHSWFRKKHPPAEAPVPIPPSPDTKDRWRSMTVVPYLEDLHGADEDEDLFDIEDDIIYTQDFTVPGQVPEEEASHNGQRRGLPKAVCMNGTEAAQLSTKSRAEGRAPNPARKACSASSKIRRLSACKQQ
T1 sequence (Q7RTN6 1-431 partner): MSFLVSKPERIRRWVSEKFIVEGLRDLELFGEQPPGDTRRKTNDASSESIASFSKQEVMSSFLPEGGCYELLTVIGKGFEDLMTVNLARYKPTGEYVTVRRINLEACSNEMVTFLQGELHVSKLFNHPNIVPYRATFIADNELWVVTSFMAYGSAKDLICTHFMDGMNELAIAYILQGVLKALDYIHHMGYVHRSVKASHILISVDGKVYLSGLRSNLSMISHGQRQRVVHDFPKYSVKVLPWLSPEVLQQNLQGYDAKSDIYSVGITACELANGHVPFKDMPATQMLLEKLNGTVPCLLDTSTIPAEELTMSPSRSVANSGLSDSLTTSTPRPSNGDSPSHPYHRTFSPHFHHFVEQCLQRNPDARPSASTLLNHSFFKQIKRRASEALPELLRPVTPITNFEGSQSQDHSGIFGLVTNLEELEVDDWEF
T1 sequence (Q9Y376 1-341 partner): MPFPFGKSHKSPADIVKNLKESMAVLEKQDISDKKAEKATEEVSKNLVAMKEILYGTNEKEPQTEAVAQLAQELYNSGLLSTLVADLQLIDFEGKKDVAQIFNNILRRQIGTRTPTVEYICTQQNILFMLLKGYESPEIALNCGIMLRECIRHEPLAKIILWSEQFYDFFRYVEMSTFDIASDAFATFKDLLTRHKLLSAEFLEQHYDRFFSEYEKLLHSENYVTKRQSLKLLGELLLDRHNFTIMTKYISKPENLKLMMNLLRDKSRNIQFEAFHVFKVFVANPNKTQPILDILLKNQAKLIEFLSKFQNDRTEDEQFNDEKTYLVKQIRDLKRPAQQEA

The target of assay [2] is T2, WNK1(h) (Homo sapiens, UniProt Q9H4A3).
T2 construct: purchased Eurofins (KinaseProfiler)

For assay [3], the target named is T3, PKBβ(h) (Homo sapiens, UniProt P31751).
T3 construct: purchased Eurofins (KinaseProfiler)

Assay [4] has as its target T4, TSSK3(h) (Homo sapiens, UniProt Q96PN8).
T4 construct: purchased Eurofins (KinaseProfiler)
T4 sequence (Q96PN8 1-268): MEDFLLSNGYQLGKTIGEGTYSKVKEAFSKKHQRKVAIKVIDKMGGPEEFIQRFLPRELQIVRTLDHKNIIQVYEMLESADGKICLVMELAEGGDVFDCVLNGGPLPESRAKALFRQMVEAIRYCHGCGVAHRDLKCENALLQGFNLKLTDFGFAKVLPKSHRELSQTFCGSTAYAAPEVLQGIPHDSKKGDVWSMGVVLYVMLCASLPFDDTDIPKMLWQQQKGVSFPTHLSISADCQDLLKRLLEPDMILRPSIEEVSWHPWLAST

Assay [5] addresses T5, BrSK1(h) (Homo sapiens, UniProt Q8TDC3).
T5 construct: purchased Eurofins (KinaseProfiler)
T5 sequence (Q8TDC3 1-778): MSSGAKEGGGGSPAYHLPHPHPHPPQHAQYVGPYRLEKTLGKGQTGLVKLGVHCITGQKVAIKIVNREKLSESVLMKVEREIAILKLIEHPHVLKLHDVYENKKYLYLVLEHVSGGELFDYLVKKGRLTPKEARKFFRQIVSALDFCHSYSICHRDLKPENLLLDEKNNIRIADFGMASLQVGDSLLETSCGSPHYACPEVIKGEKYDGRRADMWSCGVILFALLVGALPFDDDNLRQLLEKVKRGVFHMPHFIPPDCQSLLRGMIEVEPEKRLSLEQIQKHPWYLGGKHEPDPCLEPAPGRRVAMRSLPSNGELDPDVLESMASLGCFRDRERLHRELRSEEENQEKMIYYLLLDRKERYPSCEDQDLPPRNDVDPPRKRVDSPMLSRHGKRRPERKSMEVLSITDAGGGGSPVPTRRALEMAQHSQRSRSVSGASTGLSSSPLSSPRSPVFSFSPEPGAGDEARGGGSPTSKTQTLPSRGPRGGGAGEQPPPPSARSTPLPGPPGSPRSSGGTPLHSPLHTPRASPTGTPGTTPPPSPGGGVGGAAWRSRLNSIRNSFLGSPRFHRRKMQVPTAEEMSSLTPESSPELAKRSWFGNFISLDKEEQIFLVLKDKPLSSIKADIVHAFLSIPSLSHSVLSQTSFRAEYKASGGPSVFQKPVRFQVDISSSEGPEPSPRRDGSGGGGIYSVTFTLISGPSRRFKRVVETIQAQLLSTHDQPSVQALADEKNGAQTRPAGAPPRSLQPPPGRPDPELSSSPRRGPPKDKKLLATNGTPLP

Assay [6] deals with T6, CDK2/cyclinA(h) (Homo sapiens, UniProt P24941).
T6 construct: purchased Eurofins (KinaseProfiler)

T2 sequence (Q9H4A3 whole entry): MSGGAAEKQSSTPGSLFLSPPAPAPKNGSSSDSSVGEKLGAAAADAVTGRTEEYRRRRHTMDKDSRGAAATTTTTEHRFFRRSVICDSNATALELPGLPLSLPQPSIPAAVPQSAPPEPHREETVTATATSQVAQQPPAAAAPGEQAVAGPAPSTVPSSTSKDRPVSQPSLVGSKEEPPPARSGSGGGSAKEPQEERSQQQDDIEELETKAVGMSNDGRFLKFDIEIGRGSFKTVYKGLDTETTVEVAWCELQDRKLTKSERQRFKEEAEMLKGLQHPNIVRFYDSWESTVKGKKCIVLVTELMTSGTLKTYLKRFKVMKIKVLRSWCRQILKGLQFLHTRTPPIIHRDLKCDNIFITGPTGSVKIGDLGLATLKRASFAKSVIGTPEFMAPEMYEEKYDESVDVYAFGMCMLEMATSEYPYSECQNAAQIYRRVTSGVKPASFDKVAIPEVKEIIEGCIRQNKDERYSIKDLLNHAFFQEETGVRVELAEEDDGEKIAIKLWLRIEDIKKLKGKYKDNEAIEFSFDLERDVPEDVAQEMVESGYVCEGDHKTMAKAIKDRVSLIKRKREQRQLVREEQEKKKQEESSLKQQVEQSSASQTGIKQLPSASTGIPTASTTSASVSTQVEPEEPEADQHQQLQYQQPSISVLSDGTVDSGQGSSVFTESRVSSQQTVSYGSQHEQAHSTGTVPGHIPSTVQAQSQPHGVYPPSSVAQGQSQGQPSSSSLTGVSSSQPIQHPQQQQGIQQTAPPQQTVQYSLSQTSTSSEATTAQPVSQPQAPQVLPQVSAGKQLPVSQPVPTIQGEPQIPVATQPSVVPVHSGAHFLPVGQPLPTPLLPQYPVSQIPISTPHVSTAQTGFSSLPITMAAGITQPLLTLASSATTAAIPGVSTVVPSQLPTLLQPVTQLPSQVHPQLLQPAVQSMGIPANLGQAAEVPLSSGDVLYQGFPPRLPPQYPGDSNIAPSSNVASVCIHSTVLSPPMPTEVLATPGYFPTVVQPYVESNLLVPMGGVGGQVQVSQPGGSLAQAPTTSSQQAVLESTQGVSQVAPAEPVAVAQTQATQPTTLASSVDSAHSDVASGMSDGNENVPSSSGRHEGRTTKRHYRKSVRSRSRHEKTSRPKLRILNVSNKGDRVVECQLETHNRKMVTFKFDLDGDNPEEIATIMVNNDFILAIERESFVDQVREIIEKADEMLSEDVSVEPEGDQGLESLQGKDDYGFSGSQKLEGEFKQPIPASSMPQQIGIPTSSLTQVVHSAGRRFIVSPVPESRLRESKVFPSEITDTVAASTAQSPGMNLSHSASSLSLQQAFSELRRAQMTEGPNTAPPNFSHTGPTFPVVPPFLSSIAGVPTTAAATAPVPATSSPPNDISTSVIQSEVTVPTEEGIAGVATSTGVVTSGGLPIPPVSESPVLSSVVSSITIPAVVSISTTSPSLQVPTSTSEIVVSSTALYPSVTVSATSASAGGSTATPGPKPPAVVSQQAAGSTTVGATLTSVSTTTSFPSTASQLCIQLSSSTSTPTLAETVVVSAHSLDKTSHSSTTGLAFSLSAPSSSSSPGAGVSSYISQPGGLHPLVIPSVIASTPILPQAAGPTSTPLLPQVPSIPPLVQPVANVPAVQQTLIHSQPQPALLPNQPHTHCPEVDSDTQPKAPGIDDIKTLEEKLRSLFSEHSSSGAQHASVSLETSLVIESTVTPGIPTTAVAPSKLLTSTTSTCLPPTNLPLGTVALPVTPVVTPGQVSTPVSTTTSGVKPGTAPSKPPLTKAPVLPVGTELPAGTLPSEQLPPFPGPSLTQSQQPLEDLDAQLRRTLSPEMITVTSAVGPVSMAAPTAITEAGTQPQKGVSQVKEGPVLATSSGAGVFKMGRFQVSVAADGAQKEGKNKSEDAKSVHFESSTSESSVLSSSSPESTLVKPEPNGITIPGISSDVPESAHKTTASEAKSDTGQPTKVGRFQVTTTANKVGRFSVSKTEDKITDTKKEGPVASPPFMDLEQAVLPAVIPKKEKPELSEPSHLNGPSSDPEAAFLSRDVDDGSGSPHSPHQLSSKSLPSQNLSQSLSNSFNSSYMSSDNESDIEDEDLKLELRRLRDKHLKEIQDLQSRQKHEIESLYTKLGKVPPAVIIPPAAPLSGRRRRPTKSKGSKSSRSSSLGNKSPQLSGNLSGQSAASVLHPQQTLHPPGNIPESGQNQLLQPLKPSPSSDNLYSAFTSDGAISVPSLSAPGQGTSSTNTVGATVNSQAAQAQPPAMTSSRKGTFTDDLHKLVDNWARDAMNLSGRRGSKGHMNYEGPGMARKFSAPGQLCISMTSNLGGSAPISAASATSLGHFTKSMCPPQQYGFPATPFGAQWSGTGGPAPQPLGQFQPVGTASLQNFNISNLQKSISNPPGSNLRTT
T3 sequence (P31751 whole entry): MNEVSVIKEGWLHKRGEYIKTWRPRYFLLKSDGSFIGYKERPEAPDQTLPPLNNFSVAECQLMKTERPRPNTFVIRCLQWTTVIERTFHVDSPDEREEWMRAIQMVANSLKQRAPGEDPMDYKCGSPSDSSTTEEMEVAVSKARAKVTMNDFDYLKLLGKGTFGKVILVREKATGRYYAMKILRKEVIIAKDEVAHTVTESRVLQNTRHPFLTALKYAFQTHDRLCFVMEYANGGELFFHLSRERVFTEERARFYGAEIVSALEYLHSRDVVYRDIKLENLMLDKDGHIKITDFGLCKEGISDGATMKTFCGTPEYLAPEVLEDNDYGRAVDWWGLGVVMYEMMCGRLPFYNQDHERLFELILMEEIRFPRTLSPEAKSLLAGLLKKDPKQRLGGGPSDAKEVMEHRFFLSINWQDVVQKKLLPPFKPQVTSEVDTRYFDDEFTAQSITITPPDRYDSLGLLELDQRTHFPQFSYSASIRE

As to `COc1cc(OC)c(Cl)c(-c2ccc3c(NC(=O)c4ccc(N5CCNC(C)(C)C5)cc4)n[nH]c3n2)c1Cl` [3D185], the inhibition at 0.01 µM was -9% in assay [1] (10 nM); 3% in assay [2] (10 nM); 15% in assay [3] (10 nM); 14% in assay [4] (10 nM); 13% in assay [5] (10 nM); 2% in assay [6] (10 nM). Also, the inhibition at 0.1 µM is 7% in assay [1] (100 nM); 2% in assay [2] (100 nM); 29% in assay [3] (100 nM); 5% in assay [4] (100 nM); 11% in assay [5] (100 nM); 7% in assay [6] (100 nM). For the same molecule, the inhibition at 1 µM is 2% in assay [1] (1000 nM); 16% in assay [2] (1000 nM); 30% in assay [3] (1000 nM); 5% in assay [4] (1000 nM); 11% in assay [5] (1000 nM); -3% in assay [6] (1000 nM).
